According to patent US11046699B2, “Pyrazolo-pyrimidin-amino-cycloalkyl compounds and their therapeutic uses” (RAPT THERAPEUTICS, INC., priority 2018, dated 2021):

target: GCN2 (Homo sapiens, UniProt Q9P2K8); assay: GCN2 enzymatic endpoint assay: phosphorylation of GFP-eIF2α measured by TR-FRET (Lanthascreen); type: biochemical; details: tested as described in Example 77; compound and/or hydrochloride, dihydrochloride or trifluoroacetic acid salt; read-out: IC 50 Activity
Procedure, shortened: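 Endpoint kinase reaction with 2 μM ATP and 80 nM GFP-labelled eIF2α substrate, run at room temperature for 90 min, then stopped with EDTA. Phospho-substrate detected by terbium-antibody TR-FRET, activity taken as the 520/495 nm emission ratio.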

Chain of GCN2 (Q9P2K8 whole entry): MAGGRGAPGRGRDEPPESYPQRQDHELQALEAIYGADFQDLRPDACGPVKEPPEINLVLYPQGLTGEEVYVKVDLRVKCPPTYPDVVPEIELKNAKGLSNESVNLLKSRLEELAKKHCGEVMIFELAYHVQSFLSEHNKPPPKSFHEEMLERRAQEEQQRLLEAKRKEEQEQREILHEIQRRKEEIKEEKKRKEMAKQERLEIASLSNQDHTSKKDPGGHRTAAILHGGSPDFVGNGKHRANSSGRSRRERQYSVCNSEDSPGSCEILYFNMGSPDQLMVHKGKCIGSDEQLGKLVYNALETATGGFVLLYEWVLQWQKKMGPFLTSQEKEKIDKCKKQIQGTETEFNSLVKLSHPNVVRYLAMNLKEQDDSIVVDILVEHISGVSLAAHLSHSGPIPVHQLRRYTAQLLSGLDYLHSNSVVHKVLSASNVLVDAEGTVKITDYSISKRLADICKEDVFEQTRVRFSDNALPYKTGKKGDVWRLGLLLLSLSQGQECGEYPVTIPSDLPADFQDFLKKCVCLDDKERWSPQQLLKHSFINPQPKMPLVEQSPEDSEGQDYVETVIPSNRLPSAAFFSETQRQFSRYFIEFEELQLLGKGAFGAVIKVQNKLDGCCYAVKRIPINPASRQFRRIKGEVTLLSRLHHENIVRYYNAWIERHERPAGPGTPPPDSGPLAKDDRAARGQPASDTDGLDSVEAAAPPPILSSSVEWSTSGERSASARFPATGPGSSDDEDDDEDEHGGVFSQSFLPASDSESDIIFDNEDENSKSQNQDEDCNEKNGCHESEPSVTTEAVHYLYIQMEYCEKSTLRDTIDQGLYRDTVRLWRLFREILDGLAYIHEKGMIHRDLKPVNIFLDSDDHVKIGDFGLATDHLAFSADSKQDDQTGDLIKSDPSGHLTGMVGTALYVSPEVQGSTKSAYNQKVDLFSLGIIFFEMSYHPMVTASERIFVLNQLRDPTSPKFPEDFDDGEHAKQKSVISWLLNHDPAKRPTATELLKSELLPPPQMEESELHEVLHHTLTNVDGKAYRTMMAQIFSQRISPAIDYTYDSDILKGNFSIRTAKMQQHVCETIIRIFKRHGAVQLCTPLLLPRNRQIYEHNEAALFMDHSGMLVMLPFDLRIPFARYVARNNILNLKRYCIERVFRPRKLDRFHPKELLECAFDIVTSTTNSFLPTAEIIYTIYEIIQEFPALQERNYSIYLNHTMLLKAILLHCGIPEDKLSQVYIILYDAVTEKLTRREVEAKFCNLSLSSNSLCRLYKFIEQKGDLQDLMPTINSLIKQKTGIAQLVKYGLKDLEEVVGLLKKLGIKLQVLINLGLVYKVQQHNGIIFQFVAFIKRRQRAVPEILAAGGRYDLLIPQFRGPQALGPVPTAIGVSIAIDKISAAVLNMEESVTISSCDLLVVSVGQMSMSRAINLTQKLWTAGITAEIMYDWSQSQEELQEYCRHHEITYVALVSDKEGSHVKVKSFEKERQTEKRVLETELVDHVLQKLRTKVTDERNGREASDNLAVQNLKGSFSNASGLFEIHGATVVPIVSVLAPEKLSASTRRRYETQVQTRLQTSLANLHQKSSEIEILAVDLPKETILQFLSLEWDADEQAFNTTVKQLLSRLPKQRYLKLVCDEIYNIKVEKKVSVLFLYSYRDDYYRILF

IC50 [µM]	Structure (SMILES)
< 0.025	CNC(=O)[C@]1(CC(F)(F)F)CC[C@@H](Nc2ncc3c(Br)nn(-c4cc(F)c5ncccc5c4)c3n2)C1 [(1R,3R)-3-[[3-bromo-1-(8-fluoro-6-quinolyl)pyrazolo[3,4-d]pyrimidin-6-yl]amino]-N-methyl-1-(2,2,2-trifluoroethyl)cyclopentane-carboxamide]
0.025 to 0.2	O[C@@H]1CC[C@@H](Nc2ncc3c(Br)nn(-c4cc(F)c5ncccc5c4)c3n2)C1 [(1R,3R)-3-[[3-bromo-1-(8-fluoro-6-quinolyl)pyrazolo[3,4-d]pyrimidin-6-yl]amino]cyclopentanol]
< 0.025	CNC(=O)[C@@H]1CC[C@@H](Nc2ncc3c(Br)nn(-c4cc(OC)c5ncccc5c4)c3n2)C1 [(1R,3R)-3-[[3-bromo-1-(8-methoxy-6-quinolyl)pyrazolo[3,4-d]pyrimidin-6-yl]amino]-N-methyl-cyclopentanecarboxamide]
0.025 to 0.2	CNC(=O)[C@]1(C)CC[C@@H](Nc2ncc3c(Br)nn(-c4cc(C5CNCCO5)c5ncccc5c4)c3n2)C1 (stereo partly drawn) [(1R,3R)-3-[[3-bromo-1-(8-morpholin-2-yl-6-quinolyl)pyrazolo[3,4-d]pyrimidin-6-yl]amino]-N,1-dimethyl-cyclopentane-carboxamide]
< 0.025	CNC(=O)[C@]1(C)CC[C@@H](Nc2ncc3c(Br)nn(-c4cc(C5CCNC5)c5ncccc5c4)c3n2)C1 (stereo partly drawn) [(1R,3R)-3-[[3-bromo-1-(8-pyrrolidin-3-yl-6-quinolyl)pyrazolo[3,4-d]pyrimidin-6-yl]amino]-N,1-dimethyl-cyclopentane-carboxamide]
0.025 to 0.2	CNC(=O)[C@]1(C)CC[C@@H](Nc2ncc3c(Br)nn(-c4cc(C5CCCO5)c5ncccc5c4)c3n2)C1 (stereo partly drawn) [(1R,3R)-3-[[3-bromo-1-(8-tetrahydrofuran-2-yl-6-quinolyl)pyrazolo[3,4-d]pyrimidin-6-yl]amino]-N,1-dimethyl-cyclopentane-carboxamide]
0.025 to 0.2	CNC(=O)[C@]1(C)CC[C@@H](Nc2ncc3c(Br)nn(-c4ccc5nncn5c4)c3n2)C1 [(1R,3R)-3-[[3-bromo-1-([1,2,4]triazolo [4,3-a]pyridin-6-yl)pyrazolo[3,4-d]pyrimidin-6-yl]amino]-N,1-dimethyl-cyclopentanecarboxamide]
0.025 to 0.2	CNC(=O)[C@]1(C)CC[C@@H](Nc2ncc3c(Br)nn(-c4ccc5ncnn5c4)c3n2)C1 [(1R,3R)-3-[[3-bromo-1-([1,2,4]triazolo[1,5-a]pyridin-6-yl)pyrazolo[3,4-d]pyrimidin-6-yl]amino]-N,1-dimethyl-cyclopentane-carboxamide]
0.025 to 0.2	CNC(=O)[C@]1(C)CC[C@@H](Nc2ncc3c(Br)nn(-c4ccc5c(c4)CCC(=O)N5CC(F)F)c3n2)C1 [(1R,3R)-3-[[3-bromo-1-[1-(2,2-difluoro-ethyl)-2-oxo-3,4-dihydroquinolin-6-yl]pyrazolo[3,4-d]pyrimidin-6-yl]amino]-N,1-dimethyl-cyclopentanecarboxamide]
0.025 to 0.2	CNC(=O)[C@]1(C)CC[C@@H](Nc2ncc3c(Br)nn(-c4ccc5c(c4)CCC(=O)N5CCO)c3n2)C1 [(1R,3R)-3-[[3-bromo-1-[1-(2-hydroxy-ethyl)-2-oxo-3,4-dihydroquinolin-6-yl]pyrazolo[3,4-d]pyrimidin-6-yl]amino]-N,1-dimethyl-cyclopentanecarboxamide]
0.025 to 0.2	CNC(=O)[C@]1(C)CC[C@@H](Nc2ncc3c(Br)nn(-c4ccc5c(c4)CCC(=O)N5CC#N)c3n2)C1 [(1R,3R)-3-[[3-bromo-1-[1-(cyano-methyl)-2-oxo-3,4-dihydroquinolin-6-yl]pyrazolo[3,4-d]pyrimidin-6-yl]amino]-N,1-dimethyl-cyclopentane-carboxamide]
0.025 to 0.2	CNC(=O)[C@]1(C)CC[C@@H](Nc2ncc3c(Br)nn(-c4ccc5c(c4)CCN(C(=O)C4CN(C)C4)C5)c3n2)C1 [(1R,3R)-3-[[3-bromo-1-[2-(1-methylazetidine-3-carbonyl)-3,4-dihydro-1H-isoquinolin-6-yl]pyrazolo[3,4-d]pyrimidin-6-yl]amino]-N,1-dimethyl-cyclopentanecarboxamide]
